Laboratory results as given in US20110201603A1, “Novel Acylaminobenzamide Derivatives” (Bayer CropScience AG, priority 2008, published 2011).

Legend:
[1] = test system: tobacco cutworm (Spodoptera litura) larvae; assay: Test against tobacco cutworm (Spodoptera litura) larvae, leaf dip; assay type: in vivo; conditions: active compound concentration of 100 ppm; third-instar larvae on sweet potato leaves; after 7 days
Description: (§1) Unless not mentioned otherwise, the test solutions were prepared as follows:
(§2) Containing as solvent: Dimethylformamide, 3 parts by weight; and as emulsifier: Polyoxyethylene alkyl phenyl ether, 1 part by weight
(§3) To prepare the test solution, 1 part by weight of an active compound is mixed with the above-mentioned amount of solvent containing the above-mentioned amount of emulsifier, and the mixture is diluted with water to the desired concentration.
The leaves of sweet potato were immersed in the test solution at the appropriate concentration, and the leaves were dried in air. The leaves were then placed in a petri dish having a diameter of 9 cm, and ten third-instar larvae of tobacco cutworm were released therein. The petri dish was placed in a temperature-controlled chamber at 25° C. After 2 days and 4 days sweet potato leaves were additionally added. After 7 days, the number of dead larvae was counted to calculate the insecticidal activity. An insecticidal activity of 100% means that all larvae were killed, whereas an insecticidal activity of 0% means that no larva was killed. In the current test, the results of two petri dishes for each partition were averaged.

[2] = test system: cucurbit leaf beetle (Aulacophora femoralis); assay: Test against cucurbit leaf beetle (Aulacophora femoralis), leaf dip; assay type: in vivo; conditions: active compound concentration of 100 ppm; second-instar larvae on cucumber leaves; after 7 days
Description: as §1, §2, §3
Cucumber leaves were immersed in the test solution at the appropriate concentration, and the leaves were dried in air. The leaves were then placed in a plastic cup containing sterilized black soil, and five second-instar larvae of cucurbit leaf beetle were released therein. The plastic cup was placed in a temperature-controlled chamber at 25° C. After 7 days, the number of dead larvae was counted, and thus the insecticidal activity was calculated. An insecticidal activity of 100% means that all beetles were killed, whereas an insecticidal activity of 0% means that no beetle was killed.

Structure (SMILES)	insecticidal activity [1]	insecticidal activity [2]
O=C(Nc1c(I)cc(C(n2cc(Cl)cn2)(C(F)(F)F)C(F)(F)F)cc1I)c1cccc(NC(=O)c2cccnc2Cl)c1 [2-63]	100%	100%
Cc1cc(C(n2c(Br)nc(Br)c2Br)(C(F)(F)F)C(F)(F)F)cc(C)c1NC(=O)c1cccc(NC(=O)c2cccnc2Cl)c1 [2-144]	100%	100%
CCc1cc(C(Oc2ccc(C(F)(F)F)cc2)(C(F)(F)F)C(F)(F)F)cc(C)c1NC(=O)c1cccc(NC(=O)c2cccnc2Cl)c1 [1-130]	100%	100%
CCc1cc(C(Oc2ccc(Cl)cn2)(C(F)(F)F)C(F)(F)F)cc(C)c1NC(=O)c1cccc(NC(=O)c2cccnc2Cl)c1 [1-173]	100%	100%
CCc1cc(C(Oc2cccc(Cl)c2)(C(F)(F)F)C(F)(F)F)cc(C)c1NC(=O)c1cccc(NC(=O)c2cccnc2Cl)c1 [1-108]	100%	100%
CCc1cc(C(n2nc(Br)c(Br)c2Br)(C(F)(F)F)C(F)(F)F)cc(C)c1NC(=O)c1cccc(NC(=O)c2cccnc2Cl)c1 [2-134]	100%	100%
Cc1cc(C(n2cc(Cl)cn2)(C(F)(F)F)C(F)(F)F)cc(Br)c1NC(=O)c1cccc(NC(=O)c2cccnc2Cl)c1 [2-59]	100%	100%
Cc1cc(C(n2nccn2)(C(F)(F)F)C(F)(F)F)cc(C)c1NC(=O)c1cccc(NC(=O)c2cccnc2Cl)c1 [2-147]	100%	100%
Cc1cc(C(n2cccc2Br)(C(F)(F)F)C(F)(F)F)cc(C)c1NC(=O)c1cccc(NC(=O)c2cccnc2Cl)c1 [2-2]	100%	100%
Cc1cc(C(Oc2ccc(Cl)cc2)(C(F)(F)F)C(F)(F)F)cc(C)c1NC(=O)c1cccc(NC(=O)c2cccnc2Cl)c1 [1-160]	100%	100%
C#CCOC(c1cc(I)c(NC(=O)c2cccc(NC(=O)c3ccccc3)c2)c(I)c1)(C(F)(F)F)C(F)(F)F [1-79]	100%	100%
CC#CCOC(c1cc(I)c(NC(=O)c2cccc(NC(=O)c3cccnc3Cl)c2)c(I)c1)(C(F)(F)F)C(F)(F)F [1-85]	100%	100%
Cc1cc(C(Oc2ccc(Cl)nc2)(C(F)(F)F)C(F)(F)F)cc(C)c1NC(=O)c1cccc(NC(=O)c2cccnc2Cl)c1 [1-182]	100%	100%
CC#CCOC(c1cc(I)c(NC(=O)c2cccc(NC(=O)c3ccccc3)c2)c(I)c1)(C(F)(F)F)C(F)(F)F [1-83]	100%	100%
CCc1cc(C(ON=Cc2ccc(Cl)cc2)(C(F)(F)F)C(F)(F)F)cc(C)c1NC(=O)c1cccc(NC(=O)c2cccnc2Cl)c1 [1-138]	100%	100%
O=C(Nc1c(Cl)cc(C(n2cc(Cl)cn2)(C(F)(F)F)C(F)(F)F)cc1Cl)c1cccc(NC(=O)c2cccnc2Cl)c1 [2-61]	100%	100%
CCc1cc(C(Oc2ccc(F)cc2)(C(F)(F)F)C(F)(F)F)cc(C)c1NC(=O)c1cccc(NC(=O)c2cccnc2Cl)c1 [1-128]	100%	100%
CCc1cc(C(Oc2ccnc(C(F)(F)C(F)(F)F)c2)(C(F)(F)F)C(F)(F)F)cc(C)c1NC(=O)c1cccc(NC(=O)c2cccnc2Cl)c1 [1-142]	100%	100%
Cc1cc(C(Oc2ccc(Br)cc2)(C(F)(F)F)C(F)(F)F)cc(C)c1NC(=O)c1cccc(NC(=O)c2cccnc2Cl)c1 [1-166]	100%	100%
CCc1cc(C(n2cc(C(F)(F)F)cn2)(C(F)(F)F)C(F)(F)F)cc(C)c1NC(=O)c1cccc(NC(=O)c2cccnc2Cl)c1 [2-105, 2-chloro-N-{3-[(2-ethyl-4-{1,1,1,3,3,3-hexafluoro-2-[4-(trifluoromethyl)-1H-pyrazol-1-yl]propan-2-yl}-6-methylphenyl)carbamoyl]-phenyl}pyridine-3-carboxamide]	100%	100%
CCc1cc(C(N2CC=CCC2)(C(F)(F)F)C(F)(F)F)cc(C)c1NC(=O)c1cccc(NC(=O)c2cccnc2Cl)c1 [2-180]	100%	100%
Cc1cc(C(n2nc(Br)c(Br)c2Br)(C(F)(F)F)C(F)(F)F)cc(C)c1NC(=O)c1cccc(NC(=O)c2cccnc2Cl)c1 [2-133]	100%	100%

Structure (SMILES)	insecticidal activity [1]	insecticidal activity [2]
O=C(Nc1c(Br)cc(C(n2cc(Cl)cn2)(C(F)(F)F)C(F)(F)F)cc1Br)c1cccc(NC(=O)c2ccccc2F)c1 [2-33]	100%	100%
CCc1cc(C(Oc2ccc(Br)cc2)(C(F)(F)F)C(F)(F)F)cc(CC)c1NC(=O)c1cccc(NC(=O)c2cccnc2Cl)c1 [1-177]	100%	100%
CCc1cc(C(Oc2ccc(Cl)c(Cl)c2)(C(F)(F)F)C(F)(F)F)cc(C)c1NC(=O)c1cccc(NC(=O)c2cccnc2Cl)c1 [1-151]	100%	100%
Cc1cc(C(n2cc(Cl)cn2)(C(F)(F)F)C(F)(F)F)cc(Br)c1NC(=O)c1cccc(NC(=O)c2c(F)cccc2F)c1 [2-41]	100%	100%
CCc1cc(C(n2cnc(Cl)n2)(C(F)(F)F)C(F)(F)F)cc(C)c1NC(=O)c1cccc(NC(=O)c2cccnc2Cl)c1 [2-183]	100%	100%
CCc1cc(C(n2cc(Cl)cn2)(C(F)(F)F)C(F)(F)F)cc(C)c1NC(=O)c1cccc(NC(=O)c2cccnc2F)c1 [2-44]	100%	100%
CCc1cc(C(OCC(F)(F)F)(C(F)(F)F)C(F)(F)F)cc(C)c1NC(=O)c1cccc(NC(=O)c2cccnc2Cl)c1 [1-146]	100%	100%
CCc1cc(C(Oc2ccc(Cl)cc2)(C(F)(F)F)C(F)(F)F)cc(CC)c1NC(=O)c1cccc(NC(=O)c2cccnc2Cl)c1 [1-176]	100%	100%
CCc1cc(C(Oc2cccnc2)(C(F)(F)F)C(F)(F)F)cc(C)c1NC(=O)c1cccc(NC(=O)c2cccnc2Cl)c1 [1-171]	100%	100%
Cc1cc(C(n2cc(Cl)cn2)(C(F)(F)F)C(F)(F)F)cc(Br)c1NC(=O)c1cccc(NC(=O)c2ccccc2F)c1 [2-31]	100%	100%
CCc1cc(C(n2cc(Br)cn2)(C(F)(F)F)C(F)(F)F)cc(C)c1NC(=O)c1cccc(NC(=O)c2cccnc2Cl)c1 [2-87]	100%	100%
CCc1cc(C(Oc2ccc(C#N)cc2)(C(F)(F)F)C(F)(F)F)cc(C)c1NC(=O)c1cccc(NC(=O)c2cccnc2Cl)c1 [1-168]	100%	100%
Cc1cc(C(n2cc(I)c(I)n2)(C(F)(F)F)C(F)(F)F)cc(C)c1NC(=O)c1cccc(NC(=O)c2cccnc2Cl)c1 [2-116]	100%	100%
CCc1cc(C(Oc2ccc(Br)cc2)(C(F)(F)F)C(F)(F)F)cc(C)c1NC(=O)c1cccc(NC(=O)c2cccnc2Cl)c1 [1-129]	100%	100%
O=C(Nc1c(I)cc(C(n2cc(Cl)cn2)(C(F)(F)F)C(F)(F)F)cc1I)c1cccc(NC(=O)c2ccccc2F)c1 [2-34]	100%	100%
CCc1cc(C(n2nc(Br)c(Br)c2Br)(C(F)(F)F)C(F)(F)F)cc(C)c1NC(=O)c1cccc(NC(=O)c2cccnc2F)c1 [2-128]	100%	100%
CC#CCOC(c1cc(I)c(NC(=O)c2cccc(NC(=O)c3ccc(F)cc3)c2)c(I)c1)(C(F)(F)F)C(F)(F)F [1-84]	100%	100%
CCc1cc(C(Oc2ccc(OC(F)(F)F)cc2)(C(F)(F)F)C(F)(F)F)cc(C)c1NC(=O)c1cccc(NC(=O)c2cccnc2Cl)c1 [1-131]	100%	100%
CCc1cc(C(Oc2ccc(I)cc2)(C(F)(F)F)C(F)(F)F)cc(C)c1NC(=O)c1cccc(NC(=O)c2cccnc2Cl)c1 [1-152]	100%	100%
Cc1cc(C(n2cnc(Cl)c2Cl)(C(F)(F)F)C(F)(F)F)cc(C)c1NC(=O)c1cccc(NC(=O)c2cccnc2Cl)c1 [2-143]	100%	100%
O=C(Nc1c(Cl)cc(C(n2cc(Cl)cn2)(C(F)(F)F)C(F)(F)F)cc1Cl)c1cccc(NC(=O)c2ccccc2F)c1 [2-32]	100%	100%
